Results taken from patent US7078395B1, “Methods for treating or preventing cancer by preventing, inhibiting or arresting cell cycling” (priority 1999, dated 2006).

What was measured:
[1] = system: MCF-7 breast cancer cells; assay: Cell Titer 96 cell proliferation assay, 4-day drug exposure; type: cell-based
Procedure: MCF-7 (ER+) and MDA-MB-231 (ER−) breast cancer cells were obtained from the American Type Culture Collection (Rockville, Md.). Cells were routinely cultured in 25 cm^2 culture flasks in Eagle's minimum essential medium (EMEM) with Hepes buffer (20 mM). This medium was supplemented with L-glutamine (2 mM), sodium hydrogen carbonate (10 mM), 1% non-essential amino acids and 5% (v/v) foetal calf serum (FCS). Before adding test compounds, cells were washed with phosphate-buffered saline (PBS) and treatments added in phenol-red free medium containing 2% stripped FCS and supplements. The effects of 2-MeOE1 or 2-MeOEMATE on the growth of MCF-7 cells was assessed using a Cell Titer 96 cell proliferation assay (Promega, Southampton, Hants, UK) according to the manufacturers' instructions. For this, cells (5000 per well) were cultured in medium containing phenol-red and 10% FCS and were exposed to a drug for 4 days before the assay was performed. For MDA-MB-231 cells, cell numbers were determined using a Coulter counter.

steroid sulphatase = biological target: T1, steroid sulphatase (Homo sapiens, UniProt P08842); conditions: compared with EMATE (18, 19); cited from earlier work
T1 sequence (P08842 22-583): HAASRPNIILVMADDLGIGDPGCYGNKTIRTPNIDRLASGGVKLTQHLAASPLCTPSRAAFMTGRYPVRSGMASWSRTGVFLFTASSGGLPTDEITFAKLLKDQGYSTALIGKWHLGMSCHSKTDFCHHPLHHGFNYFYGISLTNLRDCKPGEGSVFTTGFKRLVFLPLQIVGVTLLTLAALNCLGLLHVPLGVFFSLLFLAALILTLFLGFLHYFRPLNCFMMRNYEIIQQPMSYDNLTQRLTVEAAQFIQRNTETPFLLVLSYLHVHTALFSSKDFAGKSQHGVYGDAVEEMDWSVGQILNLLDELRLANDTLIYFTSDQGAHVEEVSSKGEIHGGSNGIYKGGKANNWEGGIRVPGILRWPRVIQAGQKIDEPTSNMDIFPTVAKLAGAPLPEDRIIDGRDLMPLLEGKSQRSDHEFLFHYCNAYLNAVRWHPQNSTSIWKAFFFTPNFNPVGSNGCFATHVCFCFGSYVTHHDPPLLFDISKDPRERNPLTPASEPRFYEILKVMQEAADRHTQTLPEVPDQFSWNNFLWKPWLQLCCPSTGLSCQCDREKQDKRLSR

[2] = Homo sapiens, MCF7, 96 h, read-out: inhibition of proliferation of MCF-7 cells

COc1cc2c(cc1OS(N)(=O)=O)CCC1C2CC[C@]2(C)C(=O)CCC12 (stereo partly shown) [2-MeOEMATE, 2-methoxyoestrone-3-O-sulphamate]
inhibition of proliferation of MCF-7 cells ([1]; 10 μM, 4 days): no further effect on cell proliferation | inhibition at 0.1 µM [1, 2]: 29% | inhibition at 1 µM [1, 2]: 52% | potency as a steroid sulphatase inhibitor (steroid sulphatase): equipotent with EMATE
